From US12600709B2, “Nonpeptide somatostatin type 5 receptor agonists and uses thereof” (Crinetics Pharmaceuticals, Inc., priority 2019, dated 2026)
Like-named read-outs stand apart in the source and are kept apart here.

Experiments:
[1] = target: T1, human somatostatin receptor subtype 5 (Homo sapiens, UniProt P35346); experiment: cAMP assay for SST5R (inhibition of cAMP in CHO-K1 cells); format: cell-based; conditions: for EC50: inhibition of cAMP via human SST5 receptor, read-out: SST5 potency; for Fold selectivity for SST5 vs SST2: class symbols, SST5 receptor over SST2 receptor
T1 construct: expressed in transfected cells
Procedure, shortened: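 CHO-K1 cells stably expressing human SSTR5 were treated 20 min at 37 °C with compounds plus 1.6 μM NKH477 in HBSS, 0.5 mM HEPES pH 7.4, 0.1% BSA, 0.2 mM IBMX. Lysate cAMP measured by HTRF against a standard curve; EC50 from cAMP-versus-concentration plots.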

[2] = target: T2, human somatostatin receptor subtype 2 (Homo sapiens, UniProt P30874); experiment: cAMP assay for SST2R (inhibition of cAMP in CHO-K1 cells); format: cell-based; conditions: Table B; inhibition of cAMP via human SST2 receptor; read-out: SST2 potency
T2 construct: expressed in transfected cells
Source text: General overview: All five SSTR subtypes are Gi coupled G-protein coupled receptors (GPCRs) that lead to decreases in intracellular cyclic AMP (cAMP) when activated by an agonist. Therefore, measurement of intracellular cAMP levels can be used to assess whether compounds of the invention are agonists of SSTR subtypes (John Kelly, Troy Stevens, W. Joseph Thompson, and Roland Seifert, Current Protocols in Pharmacology, 2005, 2.2.1-2.2). One example of an intracellular cAMP assay is described below.
cAMP Assay Protocol for SST2R:
Four days prior to the assay, 5,000 Chinese hamster ovary cells (CHO-K1, ATCC #CCL-61) stably expressing the human somatostatin receptor subtype 2 are plated in each well of a 96-well tissue culture-treated plate in Ham's F12 growth media (ThermoFisher #10-080-CM) supplemented with 10% donor bovine serum (Gemini Bio-Products #100-506), 100 U/mL penicillin; 100 μg/mL streptomycin; 2 mM L-glutamine (Gemini Bio-Products #400-110) and 0.2 mg/mL hygromycin B (GoldBio #31282-04-9). The cells are cultured at 37° C., 5% CO2 and 95% humidity. On the day of the assay, the media is aspirated and the cells are treated with 50 μL of 1.6 μM NKH477 (Sigma #N3290) plus various dilutions of compounds of the invention in assay buffer [1× Hank's Balanced Salt Solution (ThermoFisher #SH3058802), 0.5 mM HEPES pH 7.4, 0.1% bovine serum albumin, 0.2 mM 3-Isobutyl-1-methylxanthine (IBMX, VWR #200002-790)]. The cells are incubated for 20 minutes at 37° C. […] The cells are treated with 50 μL of lysis buffer (HRTF cAMP kit, Cisbio). The lysate is transferred to 384-well plates and cAMP detection and visualization antibodies are added and incubated for 1-24 hours at room temperature. The time-resolved fluorescent signal is read with a Tecan M1000Pro multiplate reader. The intracellular cAMP concentrations are calculated by regression to a standard curve and are plotted vs. the concentration of the compounds of the invention and the EC50 of the compounds are calculated using standard methods. All data manipulations are in GraphPad Prism v6 or v7.

T1 sequence (P35346 whole entry): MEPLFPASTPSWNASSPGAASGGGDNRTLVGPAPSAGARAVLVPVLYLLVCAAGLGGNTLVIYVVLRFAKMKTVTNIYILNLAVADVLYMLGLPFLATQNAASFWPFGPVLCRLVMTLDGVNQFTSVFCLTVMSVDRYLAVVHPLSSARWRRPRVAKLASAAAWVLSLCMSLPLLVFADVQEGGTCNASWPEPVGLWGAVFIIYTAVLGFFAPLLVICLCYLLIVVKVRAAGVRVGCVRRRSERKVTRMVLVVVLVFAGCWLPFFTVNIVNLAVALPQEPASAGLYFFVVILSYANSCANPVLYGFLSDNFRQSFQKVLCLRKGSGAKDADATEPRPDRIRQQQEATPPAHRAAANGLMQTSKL
T2 sequence (P30874 whole entry): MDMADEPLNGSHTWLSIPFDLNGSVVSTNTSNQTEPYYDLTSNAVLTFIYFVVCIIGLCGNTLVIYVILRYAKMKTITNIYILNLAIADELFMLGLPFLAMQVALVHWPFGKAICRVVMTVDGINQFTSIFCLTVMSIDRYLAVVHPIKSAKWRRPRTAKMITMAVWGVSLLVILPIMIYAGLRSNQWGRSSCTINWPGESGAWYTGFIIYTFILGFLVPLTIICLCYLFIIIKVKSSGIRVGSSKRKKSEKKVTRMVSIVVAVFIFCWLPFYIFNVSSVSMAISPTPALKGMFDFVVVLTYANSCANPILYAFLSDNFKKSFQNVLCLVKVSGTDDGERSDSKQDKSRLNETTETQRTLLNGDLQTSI

SMILES	EC50 ([1]; Table A) [nM]	Fold selectivity for SST5 vs SST2 ([1]; Table B)	EC50 ([1]; Table B) [nM]	EC50 [2] [nM]
C[C@]1(N)CCN(c2c(C(=O)NCC3(F)CCC3)cncc2-c2cc(F)cc(F)c2)C1 [1-47, 4-[(3S)-3-amino-3-methylpyrrolidin-1-yl]-5-(3,5-difluorophenyl)-N-[(1-fluorocyclobutyl)methyl]pyridine-3-carboxamide]	< 10	+++ (+++=>500)	< 10	100 to 1000
C[C@]1(N)CCN(c2c(C(=O)NC3CCC(F)(F)CC3)cnc(C#N)c2-c2cc(F)cc(F)c2)C1 [1-48, 4-[(3S)-3-amino-3-methylpyrrolidin-1-yl]-6-cyano-N-(4,4-difluorocyclohexyl)-5-(3,5-difluorophenyl)pyridine-3-carboxamide]	< 10	+++ (+++=>500)	< 10	100 to 1000
C[C@]1(N)CCN(c2c(C(=O)NC34CC(C3)C4)cnc(C#N)c2-c2cc(F)cc(F)c2)C1 [1-49, 4-[(3S)-3-amino-3-methylpyrrolidin-1-yl]-N-{bicyclo[1.1.1]pentan-1-yl}-6-cyano-5-(3,5-difluorophenyl)pyridine-3-carboxamide]	< 10	+++ (+++=>500)	< 10	100 to 1000
C[C@]1(N)CCN(c2c(C(=O)NC(C3CC3)C3CC3)cncc2-c2cc(F)cc(F)c2)C1 [1-51, 4-[(3S)-3-amino-3-methylpyrrolidin-1-yl]-N-(dicyclopropylmethyl)-5-(3,5-difluorophenyl)pyridine-3-carboxamide]	< 10	+++ (+++=>500)	< 10	100 to 1000
C[C@H](NC(=O)c1cncc(-c2cc(F)cc(F)c2)c1N1CC[C@](C)(N)C1)C(F)(F)F [1-54, 4-[(3S)-3-amino-3-methylpyrrolidin-1-yl]-5-(3,5-difluorophenyl)-N-[(2S)-1,1,1-trifluoropropan-2-yl]pyridine-3-carboxamide]	< 10	++ (++=100 to 499)	< 10	100 to 1000
CCC(C)CNC(=O)c1cncc(-c2cc(F)cc(F)c2)c1N1CC[C@](C)(N)C1 (stereo partly drawn) [1-57, 4-[(3S)-3-amino-3-methylpyrrolidin-1-yl]-5-(3,5-difluorophenyl)-N-(2-methylbutyl)pyridine-3-carboxamide]	< 10	++ (++=100 to 499)	< 10	100 to 1000
CCC(CC)CNC(=O)c1cncc(-c2cc(F)cc(F)c2)c1N1CC[C@](C)(N)C1 [1-58, 4-[(3S)-3-amino-3-methylpyrrolidin-1-yl]-5-(3,5-difluorophenyl)-N-(2-ethylbutyl)pyridine-3-carboxamide]	< 10	+++ (+++=>500)	< 10	100 to 1000
N[C@H]1CCN(c2c(C(=O)NC(C3CC3)C3CC3)cncc2-c2cc(F)cc(Cl)c2)C1 [1-61, 4-[(3S)-3-aminopyrrolidin-1-yl]-5-(3-chloro-5-fluorophenyl)-N-(dicyclopropylmethyl)pyridine-3-carboxamide]	< 10	+++ (+++=>500)	< 10	> 1000
N#Cc1ncc(C(=O)NC23CC(C2)C3)c(N2CC[C@H](N)C2)c1-c1cc(F)cc(F)c1 [1-64, 4-[(3S)-3-aminopyrrolidin-1-yl]-N-{bicyclo[1.1.1]pentan-1-yl}-6-cyano-5-(3,5-difluorophenyl)pyridine-3-carboxamide]	< 10	+++ (+++=>500)	< 10	> 1000
N#Cc1ncc(C(=O)NC23CC(C2)C3)c(N2CC[C@H](N)C2)c1-c1ccc(F)c(F)c1 [1-66, 4-[(3S)-3-aminopyrrolidin-1-yl]-N-{bicyclo[1.1.1]pentan-1-yl}-6-cyano-5-(3,4-difluorophenyl)pyridine-3-carboxamide]	< 10	+++ (+++=>500)	< 10	> 1000
N#Cc1ncc(C(=O)NC2CCC(F)(F)CC2)c(N2CC[C@H](N)C2)c1-c1cc(F)cc(F)c1 [1-67, 4-[(3S)-3-aminopyrrolidin-1-yl]-6-cyano-N-(4,4-difluorocyclohexyl)-5-(3,5-difluorophenyl)pyridine-3-carboxamide]	< 10	+++ (+++=>500)	< 10	> 1000
N#Cc1ncc(C(=O)NC2CC(F)(F)C2)c(N2CC[C@H](N)C2)c1-c1cc(F)cc(F)c1 [1-68, 4-[(3S)-3-aminopyrrolidin-1-yl]-6-cyano-N-(3,3-difluorocyclobutyl)-5-(3,5-difluorophenyl)pyridine-3-carboxamide]	< 10	+++ (+++=>500)	< 10	> 1000

Next, values leading:

EC50 ([1]; Table A) [nM]	Fold selectivity for SST5 vs SST2 ([1]; Table B)	EC50 ([1]; Table B) [nM]	EC50 [2] [nM]	SMILES
< 10	++ (++=100 to 499)	< 10	100 to 1000	C[C@]1(N)CCN(c2c(C(=O)NC3CC(F)(F)C3)cncc2-c2cc(F)cc(F)c2)C1 [1-30, 4-[(3S)-3-amino-3-methylpyrrolidin-1-yl]-N-(3,3-difluorocyclobutyl)-5-(3,5-difluorophenyl)pyridine-3-carboxamide]
< 10	++ (++=100 to 499)	< 10	100 to 1000	CCC(CC)NC(=O)c1cncc(-c2cc(F)cc(F)c2)c1N1CC[C@](C)(N)C1 [1-31, 4-[(3S)-3-amino-3-methylpyrrolidin-1-yl]-5-(3,5-difluorophenyl)-N-(pentan-3-yl)pyridine-3-carboxamide]
< 10	++ (++=100 to 499)	< 10	100 to 1000	CC1(NC(=O)c2cncc(-c3cc(F)cc(F)c3)c2N2CC[C@](C)(N)C2)CCC1 [1-34, 4-[(3S)-3-amino-3-methylpyrrolidin-1-yl]-5-(3,5-difluorophenyl)-N-(1-methylcyclobutyl)pyridine-3-carboxamide]
< 10	++ (++=100 to 499)	< 10	100 to 1000	C[C@]1(N)CCN(c2c(C(=O)NC3CC(F)(F)C3)cncc2-c2cc(F)cc(Cl)c2)C1 [1-35, 4-[(3S)-3-amino-3-methylpyrrolidin-1-yl]-5-(3-chloro-5-fluorophenyl)-N-(3,3-difluorocyclobutyl)pyridine-3-carboxamide]
< 10	++ (++=100 to 499)	< 10	10 to 100	C[C@H](NC(=O)c1cncc(-c2cc(F)cc(F)c2)c1N1CC[C@](C)(N)C1)C1CC1 [1-41, 4-[(3S)-3-amino-3-methylpyrrolidin-1-yl]-N-[(1S)-1-cyclopropylethyl]-5-(3,5-difluorophenyl)pyridine-3-carboxamide]
< 10	++ (++=100 to 499)	< 10	100 to 1000	C[C@@H](NC(=O)c1cncc(-c2cc(F)cc(F)c2)c1N1CC[C@](C)(N)C1)C1CC1 [1-44, 4-[(3S)-3-amino-3-methylpyrrolidin-1-yl]-N-[(1R)-1-cyclopropylethyl]-5-(3,5-difluorophenyl)pyridine-3-carboxamide]
